Series [1] in a line: Pharmacokinetic analysis: brimonidine concentration in aqueous humor. The class given is in vivo. The settings on record: brimonidine in rabbit aqueous humor after topical administration. As to the method:
Seven different formulations loaded with brimonidine prepared as described in Example 6-1 were topically administered to the rabbit eye and pharmacokinetics of the drug administered was examined as described below from the aqueous humor taken at a specified time in FIG. 12 after the administration. Specifically, the rabbit was generally anesthetized as described in Example 4 at the specified time after the administration and 50 μl of Aqueous humor (AH) was obtained from the rabbit eye using 1 ml syringe with 30 gauge needle, which was then used for SPE (Solid Phase Extraction) and HPLC analysis. First, Brimonidine Stock solution was prepared at the final concentration of […] in distilled water, from which 2000, 1000, 800, 600, 400, 200, 100, and 50 μg/ml of Brimonidine solution were prepared. For the calibration, 25 μl of AH from no treatment control, 25 μl Stock Solution (2000, 1000, 800, 600, 400, 200, 100, 50 μg/ml), 50 μl IS (Internal standard, clonidine)(50 μg/ml) and 200 μl of PBS (pH=8) were mixed and centrifuged at 11000×g for 10 min. and 100 μl of the supernatant was used for SPE analysis.
For the sample from the rabbit eye treated with the drug, 50 μl of AH, 50 μl of IS (50 μg/ml) and 200 μl of PBS (pH=8) were mixed and centrifuged at 11000×g for 10 min and 100 μl of the supernatant was used for SPE analysis. SPE (Bond-Eluct-C18, 100 mg, 1 ml, Agilent Technologies) analysis was proceed as below. Before the sample injection, it was washed with MeOH (1 ml) and distilled water (1 ml). Each sample for the calibration and for the analysis was then injected and washed with 1 ml of PBS and eluted with 1 ml of 70% acetonitrile, followed by evaporation for 3 hrs at 40° C. using SpeedVac (Thermo Savant SPD 2010 SpeedVac System, Thermo Electron Corporation, USA). […]
HPLC (Agilent 1260 Series, Agilent Technologies, CA, USA) was used for determining the concentration, in which 50 μl of sample was injected and analyzed under the following condition: Mobile phase=20 mM phosphate buffer (pH=2.5) : MeOH=9:1, flow rate 1 ml/min, 248 nm

Series [2] concerns Intra ocular pressure (IOP) of the rabbit eye. Put plainly: Therapeutic effect: decrease in IOP after administration of drug-loaded formulations. The settings on record: topical, 556.5 μg dorzolamide (25 μl of Trusopt 2%). The class given is in vivo. As to the method:
The formulation of microparticles as prepared in Examples 6-1 and 6-2 was administered to the rabbit eye according to Example 4 and IOP was measured as described in Example 5.
For testing therapeutic effect by BRT, a total of 7 samples were used. […] For testing therapeutic effect by dorzolamide, 25 μl of Trusopt 2% (MSD, USA), PVA tablet (just containing 556.5 μg of dorzolamide 556.5 μg without any microparticles) and four different types of microparticles prepared as described above containing 556.5 μg dorzolamide were used for the test.
Then, a device for measuring IOP called Tonopen as described in Example 5 was used to measure IOP before the administration and 0.5 h˜13 h after the administration to confirm the efficacy of the drug.

In general, AUC refers to the area under the concentration-time curve, a measure of exposure. A lower AUC goes with low exposure. A word on the Cmax: it is the highest concentration seen after dosing. Consider Brimonidine Tartrate [BRT solution], for which, in series [1], the AUC was determined as 795 ng·h/mL, the Cmax was found to be 692 ng/mL and the tmax turned out to be 40 min.

`CCN[C@H]1C[C@H](C)S(=O)(=O)c2sc(S(N)(=O)=O)cc21` [Dorzolamide solution, Dorzolamide]: the “time for which the formulation was effective in decreasing IOP (Dorzolamide)” value in series [2] stood at 5 h.

The record behind these values is patent US20150133454A1, “NANOSTRUCTURED MUCOADHESIVE MICROPARTICLES” (SNU R&DB FOUNDATION, priority 2012, published 2015).
